Measurements taken from BindingDB's records for doi:10.1016/j.bmcl.2003.10.007 (Inotek Pharmaceuticals, 2003).
Counter-ions that a name gives are not always drawn.

experiment: Tested for inhibition of poly(ADP-ribose) polymerase-1 (PARP-1) in mouse using Cell protection assay

Compound	IC50 [µM]
Nc1ncnc2c1ncn2C1O[C@H](CNC(=O)/C=C/c2ccc(C(=O)Nc3cccc4c3CNC4=O)cc2)[C@@H](O)[C@H]1O (stereo not given in full)	10
Nc1ncnc2c1ncn2C1OC(CNC(=O)CCC(=O)Nc2cccc(-c3ccccc3)c2)[C@@H](O)[C@H]1O (stereo partly drawn) [N-[(3S,4R)-5-(6-Amino-purin-9-yl)-3,4-dihydroxy-tetrahydro-furan-2-ylmethyl]-N'-biphenyl-3-yl-succinamide]	5
Nc1ncnc2c1ncn2C1O[C@H](CNC(=O)CCCCCCC(=O)Nc2cccc3c2CNC3=O)[C@@H](O)[C@H]1O (stereo not given in full)	0.7
Nc1ncnc2c1ncn2[C@@H]1O[C@H](C(=O)N2CCN(CC(=O)Nc3cccc4c3CNC4=O)CC2)[C@@H](O)[C@H]1O [2-(4-((2S,3S,4R,5R)-5-(6-amino-9H-purin-9-yl)-3,4-dihydroxytetrahydrofuran-2-carbonyl)piperazin-1-yl)-N-(1-oxoisoindolin-4-yl)acetamide]	0.045
Nc1ncnc2c1ncn2C1O[C@H](CNC(=O)CC(=O)Nc2cccc3c2CNC3=O)[C@@H](O)[C@H]1O (stereo not given in full)	1.9
O=C(CCCCCCC(=O)Nc1cccc2c1CNC2=O)NC[C@H]1OC(n2cnc3c(=O)[nH]cnc32)[C@H](O)[C@@H]1O (stereo not given in full)	68
Nc1ncnc2c1ncn2C1O[C@H](CNC(=O)CCCCCCCC(=O)Nc2cccc3c2CNC3=O)[C@@H](O)[C@H]1O (stereo not given in full)	2
Nc1ncnc2c1ncn2C1O[C@H](C(=O)N2CCNCC2)[C@@H](O)[C@H]1O (stereo not given in full)	> 300
Nc1ncnc2c1ncn2C1O[C@H](CNC(=O)CCC(=O)Nc2cccc3c2CNC3=O)[C@@H](O)[C@H]1O (stereo not given in full)	0.1
Nc1ncnc2c1ncn2C1O[C@H](CNC(=O)CCCCCC(=O)Nc2cccc3c2CNC3=O)[C@@H](O)[C@H]1O (stereo not given in full)	3
CN1CCN(CCC(=O)Nc2cccc3c2CNC3=O)CC1 [3-(4-Methyl-piperazin-1-yl)-N-(1-oxo-2,3-dihydro-1H-isoindol-4-yl)-propionamide]	> 30

The remaining lines, values ahead:

IC50 [µM]	Compound
3	O=C(Cn1cnc2ccccc21)Nc1cccc2c1CNC2=O [2-Benzoimidazol-1-yl-N-(1-oxo-2,3-dihydro-1H-isoindol-4-yl)-acetamide]
18	O=C(CN1CCNCC1)Nc1cccc2c1CNC2=O [N-(1-Oxo-2,3-dihydro-1H-isoindol-4-yl)-2-piperazin-1-yl-acetamide; hydrochloride]
3	CNc1ncnc2c1ncn2CC(=O)Nc1cccc2c1CNC2=O [2-(6-Methylamino-purin-9-yl)-N-(1-oxo-2,3-dihydro-1H-isoindol-4-yl)-acetamide]
> 30	O=C(CN1CCOCC1)Nc1cccc2c1CNC2=O [2-Morpholin-4-yl-N-(1-oxo-2,3-dihydro-1H-isoindol-4-yl)-acetamide]
30	Nc1cccc2c1CNC2=O [4-Amino-2,3-dihydro-isoindol-1-one]
> 30	CN1CCN(CC(=O)Nc2cccc3c2CNC3=O)CC1 [2-(4-Methyl-piperazin-1-yl)-N-(1-oxo-2,3-dihydro-1H-isoindol-4-yl)-acetamide]
> 30	CNCC(=O)Nc1cccc2c1CNC2=O [2-Methylamino-N-(1-oxo-2,3-dihydro-1H-isoindol-4-yl)-acetamide]
30	O=C1N=Cc2ccccc21 [Isoindol-1-one]
18	CCNCC(=O)Nc1cccc2c1CNC2=O [2-Ethylamino-N-(1-oxo-2,3-dihydro-1H-isoindol-4-yl)-acetamide]
